{"source": "patent US7723468B2", "about": "“Antimicrobial peptide, compositions, and uses therefor” (De Sao Paulo Universida de, priority 2000, dated 2010)", "assay_type_in_all_cases": "cell-based", "key": {"[1]": {"test_system": "bacteria, fungi and yeast", "assay": "Liquid growth inhibition assay, MIC activity spectrum (FIG. 1)", "description": "The active fraction against the tested bacterium Micrococcus luteus of hemocytes (AGH2) is additionally purified by filtration chromatography. Elution is made under isocratic conditions with 30% acetonitrile in acidic water at a flow rate of 0.4 ml/min. HPLC (high performance liquid chromatography) purification was made at room temperature. The effluent column was monitored for its absorbance at 225 nm. Fractions corresponding to absorbance peaks were collected, concentrated under vacuum and reconstituted in MilliQ water. Anti-bacterial activity of the collected fractions was monitored by a liquid growth inhibition assay according to J. Biol. Chem., 268, 14893-14897 (1993), using Micrococcus luteus as the test microorganism.\n(§1) The evaluation of activity against bacteria and fungi was done as described in J. Biol. Chem., 271, 29537-29544 (1996).\nOn FIG. 1, n.d. means “non-detected” for the tested concentration range of up to 100 μM for gomesin, while n.m. means not measured. The minimal inhibitory concentrations (MICs) of synthetic peptides are expressed as the [A]-[B] interval of concentrations, where [A] is the highest concentration tested at which the microorganisms are growing and [B] is the lowest concentration that causes 100% growth inhibition. […]"}, "[2]": {"test_system": "Leishmania (leishmania) amazonensis (MRPO/BR/72/M 1841-LV-79)", "assay": "Anti-parasitic activity, MTT cell viability test (FIG. 4)", "conditions": "incubation one hour at 22° C., 0.1 to 100 μM", "description": "(§2) As an example of anti-parasitic activity, the cell viability of Leishmania (leishmania) amazonensis (MRPO/BR/72/M 1841-LV-79) and Trypanosoma cruzi were evaluated, by making use of the MTT [3-(4,5-dimethyltiazolyl-2)-2,5-diphenyl tetrazolio bromide] test as described in J. Immunol. Methods 65, 55-63 (1983) and adapted for Leishmania spp, according to J. Immunol. Methods 127, 11-18 (1990).\n(§3) Quantities from 0.1 to 100 μM were tested against Leishmania (leishmania) amazonensis and Trypanosoma cruzi. […] The death of parasites (%) was measured by making use of the MTT assay as described in J. Immunol. Methods 65, 55-63 (1983) and adapted for Leishmania spp, according to J. Immunol. Methods 127, 11-18 (1990)."}, "[3]": {"test_system": "Trypanosoma cruzi", "assay": "Anti-parasitic activity, MTT cell viability test (FIG. 4)", "conditions": "incubation one hour at 22° C., 0.1 to 100 μM", "description": "as §2, §3"}, "[4]": {"test_system": "Gram-positive and Gram-negative bacteria and yeast", "assay": "Antimicrobial activity of head-to-tail cyclic gomesin, same growth inhibition assay (FIG. 3)", "conditions": "tested Gram-positive and Gram-negative bacteria and yeast", "description": "as §1\nOn FIG. 1, n.d. means “non-detected” for the tested concentration range of up to 100 μM for gomesin, while n.m. means not measured. The minimal inhibitory concentrations (MICs) of synthetic peptides are expressed as the [A]-[B] interval of concentrations, where [A] is the highest concentration tested at which the microorganisms are growing and [B] is the lowest concentration that causes 100% growth inhibition.\nThe antimicrobial activity of the head-to-tail cyclic gomesin peptide (SEQ ID No 3) was evaluated using the same assay described above."}}, "note": "Bridges are numbered along the chain shown (N, C = ends).", "data": [{"substance": "ZCRRLCYKQRCVTYCRGRa [gomesin]", "values": [{"measurement": "MIC (minimum inhibitory concentration)", "setting": "[1]; for half of the 24 susceptible strains", "value": "≤ 1.6", "unit": "µM"}, {"measurement": "strains susceptible to gomesin", "setting": "[1]; out of the 27 strains tested, concentration range up to 100 μM", "value": 24, "unit": "strains"}, {"measurement": "viability of parasites (death of parasites, %)", "setting": "[2]", "value": "dependent on the concentration of gomesin"}, {"measurement": "viability of parasites (death of parasites, %)", "setting": "[3]", "value": "dependent on the concentration of gomesin"}]}, {"substance": "QCRRLCYKQRCVTYCRGR (cyclo(QCRRLCYKQRCVTYCRGR); disulfide 6-11, 2-15; SMILES CC(C)C[C@@H]1NC(=O)[C@H](CCCNC(=N)N)NC(=O)[C@H](CCCNC(=N)N)NC(=O)[C@@H]2CSSC[C@H](NC(=O)[C@H](Cc3ccc(O)cc3)NC(=O)[C@H]([C@@H](C)O)NC(=O)[C@H](C(C)C)NC(=O)[C@@H]3CSSC[C@H](NC1=O)C(=O)N[C@@H](Cc1ccc(O)cc1)C(=O)N[C@@H](CCCCN)C(=O)N[C@@H](CCC(N)=O)C(=O)N[C@@H](CCCNC(=N)N)C(=O)N3)C(=O)N[C@@H](CCCNC(=N)N)C(=O)NCC(=O)N[C@@H](CCCNC(=N)N)C(=O)N[C@@H](CCC(N)=O)C(=O)N2) [head-to-tail cyclic gomesin, gomesin with closed ends]", "values": [{"measurement": "antimicrobial activity compared with native gomesin", "setting": "[4]", "value": "identical to the activity of native gomesin"}]}]}
